Reference: article PMC5529566, “The cryo-EM structure of gastric H^+,K^+-ATPase with bound BYK99, a high-affinity member of K^+-competitive, imidazo[1,2-a]pyridine inhibitors” (Scientific Reports, 2017)

What was measured:
H^+,K^+-ATPase WT = target: T1, H^+,K^+-ATPase WT (Sus scrofa, UniProt P19156); test: K^+-competitive inhibition of H^+,K^+-ATPase activity, 96-well ATPase assay, wild-type; type: biochemical, pig
T1 construct: made in house; host or cells: HEK293S GnT1- cells (BacMam baculovirus transduction); permeabilised membrane fractions
T1 sequence (P19156 whole entry): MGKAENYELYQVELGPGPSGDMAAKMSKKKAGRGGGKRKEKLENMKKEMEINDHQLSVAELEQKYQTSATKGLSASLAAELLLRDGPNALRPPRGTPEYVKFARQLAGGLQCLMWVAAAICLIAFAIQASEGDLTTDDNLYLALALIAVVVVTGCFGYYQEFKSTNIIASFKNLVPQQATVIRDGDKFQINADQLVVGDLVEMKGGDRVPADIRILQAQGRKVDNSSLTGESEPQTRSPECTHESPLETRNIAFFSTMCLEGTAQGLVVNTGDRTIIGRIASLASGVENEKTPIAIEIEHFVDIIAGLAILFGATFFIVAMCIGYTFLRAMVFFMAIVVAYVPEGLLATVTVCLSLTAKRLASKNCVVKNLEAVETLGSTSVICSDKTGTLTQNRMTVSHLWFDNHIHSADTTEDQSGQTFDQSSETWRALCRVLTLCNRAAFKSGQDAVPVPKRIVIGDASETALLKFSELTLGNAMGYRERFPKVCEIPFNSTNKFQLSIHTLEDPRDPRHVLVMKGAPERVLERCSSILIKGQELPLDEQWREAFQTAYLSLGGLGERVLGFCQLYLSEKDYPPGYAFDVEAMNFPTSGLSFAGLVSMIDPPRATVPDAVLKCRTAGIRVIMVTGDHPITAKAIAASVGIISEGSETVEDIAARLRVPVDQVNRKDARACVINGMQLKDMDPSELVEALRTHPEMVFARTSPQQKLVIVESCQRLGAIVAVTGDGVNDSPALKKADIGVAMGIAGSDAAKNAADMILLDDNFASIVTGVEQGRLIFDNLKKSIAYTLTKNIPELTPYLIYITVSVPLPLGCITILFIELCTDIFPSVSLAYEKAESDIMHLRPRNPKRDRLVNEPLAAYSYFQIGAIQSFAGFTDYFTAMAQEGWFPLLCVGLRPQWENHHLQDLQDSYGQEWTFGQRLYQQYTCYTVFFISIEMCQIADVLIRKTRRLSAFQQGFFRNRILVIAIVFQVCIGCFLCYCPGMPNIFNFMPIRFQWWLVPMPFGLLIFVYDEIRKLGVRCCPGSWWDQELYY
T1 sequence (P18434 whole entry partner): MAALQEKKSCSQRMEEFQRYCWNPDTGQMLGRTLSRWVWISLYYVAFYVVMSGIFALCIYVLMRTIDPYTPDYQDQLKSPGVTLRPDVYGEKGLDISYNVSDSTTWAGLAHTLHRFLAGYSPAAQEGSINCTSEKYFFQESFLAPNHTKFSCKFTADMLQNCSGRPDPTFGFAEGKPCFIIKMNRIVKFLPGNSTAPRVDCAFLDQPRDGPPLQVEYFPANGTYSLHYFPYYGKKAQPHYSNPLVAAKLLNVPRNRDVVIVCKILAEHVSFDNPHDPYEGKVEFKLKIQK

H^+,K^+-ATPase D136A = H^+,K^+-ATPase D136A (Sus scrofa, UniProt P19156, D137A); test: ATPase assay, D136A mutant
H^+,K^+-ATPase D136L = H^+,K^+-ATPase D136L (Sus scrofa, UniProt P19156, D137L); test: ATPase assay, D136L mutant
H^+,K^+-ATPase D136I = H^+,K^+-ATPase D136I (Sus scrofa, UniProt P19156, D137I); test: ATPase assay, D136I mutant
H^+,K^+-ATPase D136F = H^+,K^+-ATPase D136F (Sus scrofa, UniProt P19156, D137F); test: ATPase assay, D136F mutant
H^+,K^+-ATPase D137A = H^+,K^+-ATPase D137A (Sus scrofa, UniProt P19156, D138A); test: ATPase assay, D137A mutant
H^+,K^+-ATPase D137L = H^+,K^+-ATPase D137L (Sus scrofa, UniProt P19156, D138L); test: ATPase assay, D137L mutant
H^+,K^+-ATPase D137I = H^+,K^+-ATPase D137I (Sus scrofa, UniProt P19156, D138I); test: ATPase assay, D137I mutant
H^+,K^+-ATPase D137F = H^+,K^+-ATPase D137F (Sus scrofa, UniProt P19156, D138F); test: ATPase assay, D137F mutant
H^+,K^+-ATPase N138A = H^+,K^+-ATPase N138A (Sus scrofa, UniProt P19156, N139A); test: ATPase assay, N138A mutant
H^+,K^+-ATPase N138L = H^+,K^+-ATPase N138L (Sus scrofa, UniProt P19156, N139L); test: ATPase assay, N138L mutant
H^+,K^+-ATPase N138I = H^+,K^+-ATPase N138I (Sus scrofa, UniProt P19156, N139I); test: ATPase assay, N138I mutant
H^+,K^+-ATPase N138F = H^+,K^+-ATPase N138F (Sus scrofa, UniProt P19156, N139F); test: ATPase assay, N138F mutant
Sequence of H^+,K^+-ATPase N138F (P19156 whole entry N139F): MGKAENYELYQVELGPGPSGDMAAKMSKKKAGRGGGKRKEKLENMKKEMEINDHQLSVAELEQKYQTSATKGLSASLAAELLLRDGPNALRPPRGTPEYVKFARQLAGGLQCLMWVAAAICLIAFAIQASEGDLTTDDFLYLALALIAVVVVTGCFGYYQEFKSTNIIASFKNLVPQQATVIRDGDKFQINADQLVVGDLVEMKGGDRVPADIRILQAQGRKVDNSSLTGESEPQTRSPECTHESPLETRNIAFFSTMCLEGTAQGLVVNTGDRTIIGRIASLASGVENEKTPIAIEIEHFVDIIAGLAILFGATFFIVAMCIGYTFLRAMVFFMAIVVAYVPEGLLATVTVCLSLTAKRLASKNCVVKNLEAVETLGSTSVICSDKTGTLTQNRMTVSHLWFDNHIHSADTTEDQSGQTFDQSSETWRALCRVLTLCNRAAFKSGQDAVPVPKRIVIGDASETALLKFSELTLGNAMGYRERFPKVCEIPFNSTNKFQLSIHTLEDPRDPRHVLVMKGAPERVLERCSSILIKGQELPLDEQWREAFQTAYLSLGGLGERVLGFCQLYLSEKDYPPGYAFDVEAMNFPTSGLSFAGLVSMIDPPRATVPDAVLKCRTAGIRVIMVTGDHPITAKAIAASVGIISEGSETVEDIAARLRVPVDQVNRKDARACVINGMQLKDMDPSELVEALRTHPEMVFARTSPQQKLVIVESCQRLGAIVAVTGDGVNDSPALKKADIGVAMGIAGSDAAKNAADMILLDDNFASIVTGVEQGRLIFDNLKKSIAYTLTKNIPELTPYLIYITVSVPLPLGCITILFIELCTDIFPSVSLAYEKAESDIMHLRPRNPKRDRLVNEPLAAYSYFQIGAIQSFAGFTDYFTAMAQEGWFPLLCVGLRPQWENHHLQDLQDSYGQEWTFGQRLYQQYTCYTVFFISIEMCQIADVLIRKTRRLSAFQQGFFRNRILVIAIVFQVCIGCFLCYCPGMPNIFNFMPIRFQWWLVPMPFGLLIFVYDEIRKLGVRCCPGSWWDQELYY
Sequence of H^+,K^+-ATPase N138F (P18434 whole entry partner): as the sequence (P18434 whole entry partner) above

H^+,K^+-ATPase L139A = H^+,K^+-ATPase L139A (Sus scrofa, UniProt P19156, L140A); test: ATPase assay, L139A mutant
H^+,K^+-ATPase L139I = H^+,K^+-ATPase L139I (Sus scrofa, UniProt P19156, L140I); test: ATPase assay, L139I mutant
H^+,K^+-ATPase L139F = H^+,K^+-ATPase L139F (Sus scrofa, UniProt P19156, L140F); test: ATPase assay, L139F mutant
Sequence of H^+,K^+-ATPase L139F (P19156 whole entry L140F): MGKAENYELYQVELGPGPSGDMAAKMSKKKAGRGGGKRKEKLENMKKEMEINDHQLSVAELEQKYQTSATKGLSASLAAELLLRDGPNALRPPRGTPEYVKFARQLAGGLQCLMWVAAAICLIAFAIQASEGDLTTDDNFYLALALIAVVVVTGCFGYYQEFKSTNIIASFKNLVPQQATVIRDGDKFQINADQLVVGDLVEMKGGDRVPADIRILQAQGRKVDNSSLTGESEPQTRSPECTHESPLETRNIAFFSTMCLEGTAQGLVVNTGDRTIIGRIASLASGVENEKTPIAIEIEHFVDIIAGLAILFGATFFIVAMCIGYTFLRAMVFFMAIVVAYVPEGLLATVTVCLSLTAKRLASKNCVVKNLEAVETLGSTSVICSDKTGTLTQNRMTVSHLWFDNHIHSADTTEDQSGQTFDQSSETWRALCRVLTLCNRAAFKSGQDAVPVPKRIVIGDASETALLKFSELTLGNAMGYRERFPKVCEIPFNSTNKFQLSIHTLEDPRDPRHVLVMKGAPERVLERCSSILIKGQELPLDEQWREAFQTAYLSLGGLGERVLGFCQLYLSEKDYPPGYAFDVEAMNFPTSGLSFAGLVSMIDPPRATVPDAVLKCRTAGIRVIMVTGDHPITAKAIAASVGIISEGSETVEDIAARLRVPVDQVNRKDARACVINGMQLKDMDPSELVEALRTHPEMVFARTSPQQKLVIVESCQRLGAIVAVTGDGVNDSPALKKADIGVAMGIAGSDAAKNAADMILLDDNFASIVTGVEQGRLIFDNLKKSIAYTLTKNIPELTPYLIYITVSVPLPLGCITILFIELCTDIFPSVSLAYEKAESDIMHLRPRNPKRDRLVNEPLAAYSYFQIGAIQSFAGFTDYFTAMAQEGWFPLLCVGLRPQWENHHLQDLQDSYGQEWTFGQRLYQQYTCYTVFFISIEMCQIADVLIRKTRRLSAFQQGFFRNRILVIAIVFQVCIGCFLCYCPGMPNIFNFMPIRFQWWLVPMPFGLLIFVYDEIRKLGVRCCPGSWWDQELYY
Sequence of H^+,K^+-ATPase L139F (P18434 whole entry partner): as the sequence (P18434 whole entry partner) above

H^+,K^+-ATPase Y140A = H^+,K^+-ATPase Y140A (Sus scrofa, UniProt P19156, Y141A); test: ATPase assay, Y140A mutant
H^+,K^+-ATPase Y140L = H^+,K^+-ATPase Y140L (Sus scrofa, UniProt P19156, Y141L); test: ATPase assay, Y140L mutant
H^+,K^+-ATPase Y140I = H^+,K^+-ATPase Y140I (Sus scrofa, UniProt P19156, Y141I); test: ATPase assay, Y140I mutant
H^+,K^+-ATPase Y140F = H^+,K^+-ATPase Y140F (Sus scrofa, UniProt P19156, Y141F); test: ATPase assay, Y140F mutant
H^+,K^+-ATPase L141I = H^+,K^+-ATPase L141I (Sus scrofa, UniProt P19156, L142I); test: ATPase assay, L141I mutant
H^+,K^+-ATPase A335G = H^+,K^+-ATPase A335G (Sus scrofa, UniProt P19156, A336G); test: ATPase assay, A335G mutant
Sequence of H^+,K^+-ATPase A335G (P19156 whole entry A336G): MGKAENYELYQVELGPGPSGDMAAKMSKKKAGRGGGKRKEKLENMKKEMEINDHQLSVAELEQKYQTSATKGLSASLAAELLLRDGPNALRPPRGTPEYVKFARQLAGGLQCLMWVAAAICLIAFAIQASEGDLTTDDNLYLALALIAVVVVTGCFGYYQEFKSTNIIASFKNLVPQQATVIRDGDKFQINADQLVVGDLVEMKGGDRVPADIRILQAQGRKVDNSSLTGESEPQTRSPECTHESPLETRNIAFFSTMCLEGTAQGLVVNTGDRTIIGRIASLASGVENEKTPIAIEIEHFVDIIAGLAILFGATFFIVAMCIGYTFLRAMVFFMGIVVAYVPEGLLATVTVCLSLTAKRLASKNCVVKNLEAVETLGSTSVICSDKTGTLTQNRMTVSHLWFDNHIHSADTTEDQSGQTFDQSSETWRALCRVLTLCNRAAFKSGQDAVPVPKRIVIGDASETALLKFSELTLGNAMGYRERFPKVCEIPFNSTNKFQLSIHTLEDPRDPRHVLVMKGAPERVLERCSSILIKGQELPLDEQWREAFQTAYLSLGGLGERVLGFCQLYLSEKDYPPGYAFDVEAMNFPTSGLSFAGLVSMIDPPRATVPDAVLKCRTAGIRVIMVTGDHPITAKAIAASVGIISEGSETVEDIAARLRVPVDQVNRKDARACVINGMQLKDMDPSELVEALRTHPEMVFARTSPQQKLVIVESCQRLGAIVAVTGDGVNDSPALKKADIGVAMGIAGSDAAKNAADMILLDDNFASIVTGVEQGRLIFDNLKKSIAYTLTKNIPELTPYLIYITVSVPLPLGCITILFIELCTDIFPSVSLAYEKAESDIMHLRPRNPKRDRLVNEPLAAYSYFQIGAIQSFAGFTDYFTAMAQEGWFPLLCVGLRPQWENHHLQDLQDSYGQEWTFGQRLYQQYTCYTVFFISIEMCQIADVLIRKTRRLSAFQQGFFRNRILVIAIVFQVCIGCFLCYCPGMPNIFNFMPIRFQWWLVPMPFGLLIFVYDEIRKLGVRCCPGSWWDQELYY
Sequence of H^+,K^+-ATPase A335G (P18434 whole entry partner): as the sequence (P18434 whole entry partner) above

H^+,K^+-ATPase Y799A = H^+,K^+-ATPase Y799A (Sus scrofa, UniProt P19156, Y800A); test: ATPase assay, Y799A mutant
H^+,K^+-ATPase Y799F = H^+,K^+-ATPase Y799F (Sus scrofa, UniProt P19156, Y800F); test: ATPase assay, Y799F mutant
H^+,K^+-ATPase = H^+,K^+-ATPase (Sus scrofa, UniProt P19156); test: Dose-dependent inhibition of H^+,K^+-ATPase activity in the presence of 10 mM KCl

With Cc1nc2c3c(ccn2c1C)[C@@H](O)[C@H](O)[C@@H](c1ccccc1)N3C [BYK73] as the molecule, how does the “-fold increase in K i compared with wild-type” value (“-fold increase in K i” below) (H^+,K^+-ATPase WT; WT) read?
Its value is 1.0 fold.

What about the “fold lower affinity compared with BYK99” value (H^+,K^+-ATPase WT; WT enzyme) of the same molecule?
The value was 1000 fold.

And the Ki (H^+,K^+-ATPase WT; WT, global fitting, mean ± SEM)?
The Ki was 4.9 ± 0.4 µM.

What about the Ki (H^+,K^+-ATPase D136A) of the same molecule?
Its Ki is 9 ± 0.5 µM.

And the “-fold increase in K i” value (H^+,K^+-ATPase D136A; D136A)?
The value was 1.8 fold.

And the Ki (H^+,K^+-ATPase D136L)?
Its Ki is 3.2 ± 0.2 µM.

What about the “-fold increase in K i” value (H^+,K^+-ATPase D136L; D136L) of the same molecule?
The value was 0.7 fold.

What about the Ki (H^+,K^+-ATPase D136I) of the same molecule?
Its Ki is 6.7 ± 0.4 µM.

And the “-fold increase in K i” value (H^+,K^+-ATPase D136I; D136I)?
Its value is 1.4 fold.

What about the Ki (H^+,K^+-ATPase D136F) of the same molecule?
The Ki was 4 ± 0.2 µM.

What about the “-fold increase in K i” value (H^+,K^+-ATPase D136F; D136F) of the same molecule?
Its value is 0.8 fold.

What about the Ki (H^+,K^+-ATPase D137A) of the same molecule?
The Ki was 120 ± 30 µM.

What about the “-fold increase in K i” value (H^+,K^+-ATPase D137A; D137A) of the same molecule?
The value was 25 fold.

And the Ki (H^+,K^+-ATPase D137L)?
The Ki was > 100 µM.

And the “-fold increase in K i” value (H^+,K^+-ATPase D137L; D137L)?
Its value is > 20 fold.

And the Ki (H^+,K^+-ATPase D137I)?
Its Ki is 32 ± 5 µM.

What about the “-fold increase in K i” value (H^+,K^+-ATPase D137I; D137I) of the same molecule?
The value was 6.5 fold.

And the Ki (H^+,K^+-ATPase D137F)?
Its Ki is 110 ± 10 µM.

What about the “-fold increase in K i” value (H^+,K^+-ATPase D137F; D137F) of the same molecule?
Its value is 22 fold.

And the Ki (H^+,K^+-ATPase N138A)?
Its Ki is 6.6 ± 0.8 µM.

What about the “-fold increase in K i” value (H^+,K^+-ATPase N138A; N138A) of the same molecule?
The value was 1.3 fold.

What about the Ki (H^+,K^+-ATPase N138L) of the same molecule?
Its Ki is > 100 µM.

And the “-fold increase in K i” value (H^+,K^+-ATPase N138L; N138L)?
Its value is > 20 fold.

And the Ki (H^+,K^+-ATPase N138I)?
Its Ki is 62 ± 17 µM.

What about the “-fold increase in K i” value (H^+,K^+-ATPase N138I; N138I) of the same molecule?
The value was 13 fold.

What about the Ki (H^+,K^+-ATPase N138F) of the same molecule?
The Ki was > 100 µM.

And the “-fold increase in K i” value (H^+,K^+-ATPase N138F; N138F)?
Its value is > 20 fold.

And the Ki (H^+,K^+-ATPase L139A)?
The Ki was 5.8 ± 0.6 µM.

What about the “-fold increase in K i” value (H^+,K^+-ATPase L139A; L139A) of the same molecule?
Its value is 1.2 fold.

What about the Ki (H^+,K^+-ATPase L139I) of the same molecule?
Its Ki is 1.7 ± 0.2 µM.

What about the “-fold increase in K i” value (H^+,K^+-ATPase L139I; L139I) of the same molecule?
The value was 0.3 fold.

What about the Ki (H^+,K^+-ATPase L139F) of the same molecule?
The Ki was 8.9 ± 0.7 µM.

And the “-fold increase in K i” value (H^+,K^+-ATPase L139F; L139F)?
Its value is 1.8 fold.

What about the Ki (H^+,K^+-ATPase Y140A) of the same molecule?
The Ki was 14 ± 2 µM.

And the “-fold increase in K i” value (H^+,K^+-ATPase Y140A; Y140A)?
The value was 2.9 fold.

And the Ki (H^+,K^+-ATPase Y140L)?
The Ki was 6.5 ± 0.6 µM.

What about the “-fold increase in K i” value (H^+,K^+-ATPase Y140L; Y140L) of the same molecule?
The value was 1.3 fold.

What about the Ki (H^+,K^+-ATPase Y140I) of the same molecule?
Its Ki is 4 ± 0.5 µM.

And the “-fold increase in K i” value (H^+,K^+-ATPase Y140I; Y140I)?
The value was 0.8 fold.

And the Ki (H^+,K^+-ATPase Y140F)?
Its Ki is 7.6 ± 0.5 µM.

What about the “-fold increase in K i” value (H^+,K^+-ATPase Y140F; Y140F) of the same molecule?
The value was 1.6 fold.

And the Ki (H^+,K^+-ATPase L141I)?
The Ki was 3.9 ± 0.8 µM.

What about the “-fold increase in K i” value (H^+,K^+-ATPase L141I; L141I) of the same molecule?
Its value is 0.8 fold.

And the Ki (H^+,K^+-ATPase A335G)?
The Ki was 0.078 ± 0.006 µM.

And the “-fold increase in K i” value (H^+,K^+-ATPase A335G; A335G)?
Its value is 0.016 fold.

What about the fold increased affinity (H^+,K^+-ATPase A335G; A335G vs WT) of the same molecule?
Its fold increased affinity is “more than 60 fold”.

And the Ki (H^+,K^+-ATPase Y799A)?
The Ki was > 200 µM.

And the “-fold increase in K i” value (H^+,K^+-ATPase Y799A; Y799A)?
The value was > 40 fold.

And the Ki (H^+,K^+-ATPase Y799F)?
The Ki was 21 ± 2.7 µM.

And the “-fold increase in K i” value (H^+,K^+-ATPase Y799F; Y799F)?
Its value is 4.3 fold.

And the IC50 (H^+,K^+-ATPase)?
The IC50 was 29 µM.
